The values that follow come from PubChem BioAssay AID2305 (GlaxoSmithKline (GSK), 2010).

This assay has as its system P. falciparum 3D7 growth, pLDH absorbance. In words: blood-stage malaria parasite growth potency – strain 3D7, dose response (AID 2305).
For orientation: IC50 means the concentration that gives 50% inhibition. A high value points to weaker potency in that assay. In turn, `O=C(NC1CCN(Cc2ccccc2)CC1)c1cc(C(=O)NC2CCN(Cc3ccccc3)CC2)cc(C(=O)NC2CCN(Cc3ccccc3)CC2)c1` had an IC50 of 1040 nM.
Next, `O=S(=O)(NCCN1CCCC1)c1cccc(-c2cccc(CNCc3ccc(F)cc3)c2)c1`: 850 nM.
To `CCc1ccc(C2CCN(CCCCNC(=O)c3ccc(NC(=O)c4ccc(Cl)cc4)cc3)CC2)c(OCCO)c1` belongs 1390 nM; to `CN1CCN(CC(=O)Nc2ccc(-c3ccc(-c4nc5ccccc5[nH]4)s3)cc2)CC1`, 300 nM; to `COc1ccc2nc(-c3ccccc3)cc(NN=Cc3ccc([N+](=O)[O-])cc3)c2c1`, 150 nM.
To `COc1ccc(CNC2CCN(C)CC2)cc1-c1ccc(S(=O)(=O)NCCc2ccccn2)s1` belongs 620 nM.
The molecule `O=C(Nc1cccc(-c2cccc(CN3CCCC3)c2)c1)c1cccc(Cl)c1` came in with an IC50 of 1180 nM.
With `COc1ccc(Oc2ccc(-c3c(C)[nH]c(C)c(Cl)c3=O)cc2)cc1`, the IC50 came out at 140 nM.
To `CCC(NCc1ccc(-c2cncc(C(=O)NCC(C)C)c2)cc1)c1ccccc1` (centres undefined) belongs 940 nM.
To `COc1cc2c(cc1C(F)(F)F)N(C(=O)Nc1cc(OC(F)(F)F)cc(-c3cccnc3)c1)CC2` belongs 40 nM; to `O=C(CN1CCN(C(=O)c2ccco2)CC1)Nc1ccc(Br)cc1Cl`, 770 nM; to `Cc1sc(CNCCCNc2cc(=O)c3ccccc3[nH]2)c(I)c1C`, 850 nM.
`COc1ccc(-c2cncc3ccc(C(=O)NCCCn4ccnc4)nc23)cc1`: the IC50 turned out to be 750 nM. This IC50 and that of the molecule before are within 1.5-fold of each other.
The molecule `Cc1cc(NC2CCCC2)nc(Nc2ccccc2F)n1` came in with an IC50 of 930 nM.
Next, `Cc1ccc2c(NN=Cc3cccc([N+](=O)[O-])c3)cc(C)nc2c1`: 270 nM.
Next, `O=C1CC(C(=O)O)CC(=O)N1`: 760 nM.
To `CC(C)Cn1cc(C2CCN(CCN3CCC(CNC(=O)c4ccc(NC(=O)c5ccc(Cl)cc5)cc4)CC3)CC2)c2ccccc21` belongs 250 nM; to `Cc1cc(N[C@@H](Cc2ccccc2)C(=O)Nc2ccccc2)nc(NCCc2cccnc2)n1`, 1340 nM.
Molecule `COc1ccc(-c2nc(NCc3ccccc3)c3cc(OC)c(OC)cc3n2)cc1` gave an IC50 of 400 nM.
Next, `COc1cc2nc(NCCc3ccccc3)nc(NC(C)c3ccccc3)c2cc1OC` (centres undefined): 280 nM.
Molecule `Cn1ccc(-c2cccc(Nc3ccnc4cc(-c5nccs5)ccc34)c2)n1` registered an IC50 of 410 nM.
On to `CCN(CC)CCN(Cc1ccc(-c2ccc(C(F)(F)F)cc2)cc1)C(=O)Cn1c(CCc2ccc(F)c(F)c2)cc(=O)c2ccccc21`, for which the IC50 was found to be 890 nM.
Consider `CCN(CC)CCN(Cc1ccc(-c2ccc(C(F)(F)F)cc2)cc1)C(=O)Cn1c(CCc2cc(F)ccc2F)nc(=O)c2ccccc21`, for which the IC50 is 830 nM.
`CC(C)c1ccc(NC(=O)c2ccc(C(=O)NC3CCN(Cc4ccsc4)C3)cc2)cc1` (centres undefined) returned an IC50 of 1030 nM.
`N#Cc1ccc(-c2ccc(C(=O)NC3CCN(CCN4CCC(c5cn(CCOC6CCCCO6)c6ccccc56)CC4)CC3)cc2)cc1` (centres undefined) showed an IC50 of 600 nM.
To `O=C(Nc1ccc(C(F)(F)F)cc1)Nc1ccccc1N1CCNCC1` belongs 500 nM; to `CCCC(=O)Nc1ccc(OCCCN(Cc2ccccc2F)c2ccc(C#N)c(C(F)(F)F)c2)cc1`, 590 nM.
Turning to `Cc1cc(-c2cnc(N)c(-c3ccc(N4CCN(C)CC4)nc3)c2)cc(C)c1O`, the IC50 came out at 1400 nM.
`O=C(C=Cc1ccc(Cl)c(Cl)c1)NCCCCCN1CCC(CCCNC(=O)c2sc3ccccc3c2Cl)CC1` registered an IC50 of 400 nM.
To `CCCCCCOc1ccc(N2C(N)=NC(N)=NC2(C)C)cc1` belongs 340 nM.
As for `c1cc2nc(CCc3nc4ccc(C5=N[C@H]6CCCC[C@H]6N5)cc4[nH]3)[nH]c2cc1C1=N[C@@H]2CCCC[C@@H]2N1`, the IC50 was found to be 230 nM.
With `Brc1cc(CNCCCNc2nc3ccccc3[nH]2)sc1Br`, the IC50 stood at 220 nM.
`CCC1(CC)N=C(N)N=C(N)C1c1ccc(Cl)c(Cl)c1` (centres undefined) had an IC50 of 380 nM. This IC50 lies about 1.7-fold higher than the previous one.
Next, `O=C(Nc1ccc(N2CCCN(Cc3cccc(F)c3)CC2)cc1)c1ccccc1`: 960 nM; `Cc1noc(C)c1-c1ccc2c(Nc3ccc(C#N)cc3)c(C(N)=O)cnc2c1`: 750 nM; `Nc1cc(C=Cc2ccc([N+](=O)[O-])s2)nc2ccccc12`: 760 nM.
As for `FC(F)(F)c1ccc(NC(=S)N2CCC(CCN3CCC(c4c[nH]c5ccccc45)CC3)CC2)cc1`, the IC50 turned out to be 890 nM. This IC50 and that of the molecule before are within 1.5-fold of each other.
Next, `COc1ccc(OC)c(Cc2c(C)nc3nc(N)nc(N)c3c2C)c1`: 860 nM; `CN(C)CC(=O)Nc1ccc(-c2ccc3ccnc(N)c3c2)cc1`: 30 nM; `CN(C)CCCNc1ncnc2c1[nH]c1ccc(Br)cc12`: 320 nM.
`O=C(/C=C/c1ccc(C(F)(F)F)cc1)NCCCCCN1CCN(C(=O)Nc2ccc(Cl)c(Cl)c2)CC1` yielded an IC50 of 870 nM.
Molecule `O=C(C1CCN(c2nnnn2-c2ccccc2)CC1)N1CCc2ccccc2C1` displayed an IC50 of 710 nM.
Consider `CCCCC#Cc1cnc2nc(N)[nH]c(=O)c2n1`, for which the IC50 is 650 nM.
In turn, `Cc1cccc2[nH]c(-c3cc(-c4cccc(Cl)c4)cnc3N)nc12` showed an IC50 of 120 nM. This IC50 lies about 5.4-fold lower than the previous one.
Next, `Cc1cc(-c2ccc(CN3Cc4ccccc4C3)cc2)ccc1S(=O)(=O)NCCN1CCCC1`: 970 nM; `NS(=O)(=O)c1ccc(Nc2nccc(-c3c(-c4cccc(NC(=O)c5c(F)cccc5F)c4)nn4ccccc34)n2)cc1`: 760 nM.
To `CCCCCOc1c(CCC)cc(Cc2cnc(N)nc2N)cc1CCC` belongs 900 nM; to `Cc1c2c(nn1-c1ccccc1)C(c1ccccc1)N(c1ccccc1)C2=O` (centres undefined), 150 nM.
Next, `CCN(CCO)Cc1ccc(-c2ccc(NS(=O)(=O)c3cccc4cccnc34)cc2)cc1`: 990 nM.
Molecule `O=c1cc(NCCCNCc2ccc(C(F)(F)F)c(F)c2)[nH]c2ccccc12` showed an IC50 of 1190 nM.
`c1cc(CN2CCN(c3ccncc3)CC2)cc(-c2ccc(-c3nc4ccccc4[nH]3)s2)c1` displayed an IC50 of 150 nM.
`Cc1nc2nc(N)nc(N)c2c(C)c1Cc1cccc(F)c1` had an IC50 of 340 nM.
To `CCc1nc(N)nc(N)c1-c1ccc(C(C)(C)C)cc1` belongs 230 nM.
To `CC(C)Oc1cc2c(cc1NS(=O)(=O)c1ccc(-c3ccc(Cl)cc3)cc1F)CCN(C)CC2` belongs 920 nM; to `COC(=O)CNC(c1ccccc1)c1cc(Br)ccc1NC(=O)c1ccccc1Br` (centres undefined), 990 nM.
To `O=C(NCCN1CCCC1)c1ccc(-c2cccc(-c3nc4ccc(F)cc4[nH]3)c2)cc1` belongs 770 nM.
As to `CC(Cc1ccc([N+](=O)[O-])cc1)NCC(O)c1cccc(C(F)(F)F)c1` (centres undefined), the IC50 is 900 nM. The IC50 values of the last two molecules are within 1.5-fold of each other.
The molecule `CCCCNc1ccc(C(=O)NC2CCN(C[C@H](O)c3ccnc4ccc(OC)cc34)CC2)cc1` displayed an IC50 of 440 nM. This IC50 lies about 2-fold lower than the previous one.
`CCc1ccc(Cc2cnc3nc(N)nc(N)c3c2C)cc1CC` returned an IC50 of 290 nM.
As for `Cc1ccccc1N1CCN(c2ncc(C(=O)NC3CC3)cc2Cl)CC1`, the half-maximal inhibitory concentration (IC50) worked out at 630 nM.
For `COc1cc(OC)nc(C(Sc2ccc(NC(=O)c3cccs3)cc2)c2ccccc2)n1` (centres undefined), the IC50 stood at 60 nM.
To `CCc1ccc(NC(=O)c2cccc(CN3CCCN(Cc4ccc(OC)cc4)CC3)c2)cc1` belongs 920 nM; to `COc1c(CNCCCCCCNCc2c(OC)c(OC)c3ccccc3c2OC)c(OC)c2ccccc2c1OC`, 960 nM.
To `COc1ccc(-c2nc(NC(=O)Cc3ccc4c(c3)OCCO4)sc2C)cc1` belongs 240 nM; to `CS(=O)(=O)NCCCNCc1cccc(-c2ccc(-c3nc4ccc(C(F)(F)F)cc4[nH]3)cc2)c1`, 1000 nM; to `CCOC(=O)CCCCOc1c(OC)cc(Cc2cnc(N)nc2N)cc1OC`, 30 nM.
`CC(=O)c1c(Nc2c(C)cc(C)cc2C)oc(C)cc1=O` returned an IC50 of 480 nM.
On to `Fc1ccc2[nH]c(-c3ccccc3)nc2c1CN1CCC(N2CCCC2)CC1`, for which the IC50 worked out at 720 nM. Compared with the last molecule, the IC50 is about 1.5-fold higher.
Next, `O=C(/C=C/c1ccc(Cl)c(Cl)c1)NCCCCCN1CCC(NC(=O)Nc2cc(F)cc(F)c2)CC1`: 790 nM; `CC(Cc1ccc(Cl)cc1)Nc1nc(NC2CCCC2)nc(N2CCC(C#N)(c3ccccc3)CC2)n1` (centres undefined): 710 nM; `CC(C)n1ncc2c(C(=O)N3CCCC4CCCCC43)cc(C3CC3)nc21` (centres undefined): 680 nM.
To `CCCc1c(C(=O)NC2CCC(CN3CCC(c4c[nH]c5ccccc45)CC3)CC2)cnn1-c1ccc(Cl)cc1` (centres undefined) belongs 760 nM; to `O=C(Cn1c2ccccc2c(=O)c2ccc(Cl)cc21)Nc1ccc(C(F)(F)F)cc1`, 530 nM; to `Nc1nc(N)c2c(ccc3c2ccn3C2C=CCCC2)n1` (centres undefined), 130 nM.
Turning to `CCCNCc1ccc(-c2ccc(CN(CCOC)C(=O)c3nn(-c4ccccc4)nc3C)cc2)nc1`, the IC50 turned out to be 730 nM. Against the preceding molecule, the IC50 is about 5.6-fold higher.
Next, `Cc1cc2nc(-c3ccc(C(=O)NCc4cccc(F)c4)cc3)[nH]c2cc1C`: 960 nM.
Next, `CCCN(CCC)S(=O)(=O)c1ccc(C(=O)Nc2nc3ccc(-c4cc(=O)[nH]c(Nc5ccccc5Cl)n4)cc3[nH]2)cc1`: 590 nM; `COc1ccc2c(c1CCNCCCCNCCc1c(OC)ccc3c1CCCC3)CCCC2`: 380 nM; `c1ccc(CCNc2ncnc3c2[nH]c2ccccc23)cc1`: 600 nM.
Take `Cc1cccc2[nH]c(-c3ccc(-c4cccc(NC(=O)Cc5cnc[nH]5)c4)cc3)nc12`: the IC50 was 900 nM.
`O=C(CC1CCCCC1)NCC(NCCCNc1cc(=O)c2ccccc2[nH]1)c1cc(Br)cc(Br)c1` (centres undefined) had an IC50 of 1050 nM.
Next, `CCOC(=O)NC1=NC(C)(C)N(OCCCOc2ccc(C)cc2C)C(NC(=O)OCC)=N1`: 130 nM; `CC(C)NCc1ccc(-c2ccc(CN3CCCC(c4ccccc4)C3)cc2)c(C(=O)NC2Cc3ccccc3C2)c1` (centres undefined): 990 nM.
Regarding `COc1ccc2ncc(F)c([C@@H](O)CN3CCC(NCc4cc5c(cn4)OCS5)CC3)c2c1`, the IC50 came to 140 nM.
To `O=C(Nc1cccc(Cl)c1)OC1CCCN2CCCCC12` (centres undefined) belongs 1020 nM.
Next, `CC(C)Sc1nc2c(c(=O)n1Cc1ccco1)C1(CCCCC1)Cc1ccccc1-2`: 250 nM.
Take `CCCCOc1cc2[nH]cc(C(=O)OCC)c(=O)c2cc1OCCCC`: the IC50 came to 200 nM.
Consider `COc1cc(NC(=O)c2sc(-c3ccc(Cl)cc3)cc2NC(=O)CN2CC[C@@H](O)C2)ccc1OCCN1CCCC1`, for which the IC50 stood at 800 nM.
Molecule `Nc1nc(N)c2c3c(ccc2n1)CCC3` registered an IC50 of 930 nM.
